# US4394503A, “Cephalosporin derivatives” (priority 1981, dated 1983)
# Like-named read-outs stand apart in the source and are kept apart here.
# Experiments:
# [1] = system: Penicillin-sensitive S. aureus (Gp-Ia); assay: In vitro antibacterial activity, two-fold agar dilution, Mueller-Hinton agar (Table 1), group Gp-Ia; assay type: cell-based; conditions: Staphylococcus aureus; read-out: Geometric Mean of MIC
# [2] = system: Pr. morganii, Ent. cloacae and Ser. marcescens (Gn-II); assay: In vitro antibacterial activity, two-fold agar dilution, Mueller-Hinton agar (Table 1), group Gn-II; assay type: cell-based, Pr. morganii (1), Ent. cloacae (2) and Ser. marcescens (2); conditions: read-out: Geometric Mean of MIC
# Ps. aeruginosa (Gn-III) = assay: In vitro antibacterial activity, two-fold agar dilution, Mueller-Hinton agar (Table 1), group Gn-III; assay type: cell-based; conditions: Pseudomonas aeruginosa; read-out: Geometric Mean of MIC
# S. aureus Smith = assay: MIC against selected test organisms (Table 2); assay type: cell-based; conditions: Staphylococcus aureus; Gp-Ia, PC-S; read-out: Minimum Inhibitory Concentration
# S. aureus A9497 = assay: MIC against selected test organisms (Table 2); assay type: cell-based; conditions: Staphylococcus aureus, Gp-Ia, PC-S, read-out: Minimum Inhibitory Concentration
# S. aureus BX-1633 = assay: MIC against selected test organisms (Table 2); assay type: cell-based; conditions: Staphylococcus aureus, BX1633, read-out: Minimum Inhibitory Concentration
# S. aureus A15092 = assay: MIC against selected test organisms (Table 2); assay type: cell-based; conditions: Staphylococcus aureus, Gp-Ib, PC-R, read-out: Minimum Inhibitory Concentration
# E. cloacae A9656 = assay: MIC against selected test organisms (Table 2); assay type: cell-based; conditions: Enterobacter cloacae, Gn-II, CET-R, read-out: Minimum Inhibitory Concentration
# S. marcescens A20019 = assay: MIC against selected test organisms (Table 2); assay type: cell-based; conditions: Serratia marcescens
# B. fragilis A22693 = assay: MIC against selected test organisms (Table 2); assay type: cell-based; conditions: Bacteroides fragilis, A22693, read-out: Minimum Inhibitory Concentration
# C. perfringens A9635 = assay: microbe, parasite or virus in culture; assay type: cell-based; conditions: Clostridium perfringens, A9635, read-out: Minimum Inhibitory Concentration
# P. acnes A21933 = assay: MIC against selected test organisms (Table 2); assay type: cell-based; conditions: Cutibacterium acnes
# N. gonorrhoeae = assay: In vitro activity against species of Streptococcus, Neisseria and Haemophilus (Table 3); assay type: cell-based; conditions: Neisseria gonorrhoeae, read-out: Geometric Mean of MIC
# H. influenzae(AMP-S) = assay: as above; assay type: cell-based; conditions: Haemophilus influenzae, read-out: Geometric Mean of MIC
# B. fragilis Group I = assay: In vitro antianaerobic activity in GAM agar (Table 4); assay type: cell-based; conditions: Bacteroides fragilis, read-out: Geometric Mean of MIC, GAM agar, nonlactamase-producing, ampicillin-sensitive, 3 strains
# B. fragilis Group II = assay: as above; assay type: cell-based; conditions: Bacteroides fragilis, read-out: Geometric Mean of MIC, GAM agar, lactamase-producing, moderately ampicillin-resistant, 3 strains
# B. fragilis Group III = assay: as above; assay type: cell-based; conditions: read-out: Geometric Mean of MIC, GAM agar, lactamase-producing, highly ampicillin-resistant, 2 strains
# [3] = system: Others Group IV (C. difficile, C. perfringens, P. acne and P. anaerobius); assay: microbe, parasite or virus in culture; assay type: cell-based; conditions: read-out: Geometric Mean of MIC, GAM agar, 1 strain each
# [4] = Example 4, ceftazidime (mean of 3 experiments)
# [5] = Example 5 ceftazidime (mean of 2 experiments)
smiles,measurement,setting,value
"CSc1cc[n+](CC2=C(C(=O)[O-])N3C(=O)C(NC(=O)/C(=N\OC(C)(C)C(=O)O)c4csc(N)n4)C3SC2)cc1 (stereo not drawn) [Example 2, 7-[(Z)-2-(2-Aminothiazol-4-yl)-2-(2-carboxyprop-2-oxyimino)-acetamido]-3-[(4-methylthiopyridinium)methyl]-3-cephem-4-carboxylate]",MIC,[1],4.7 µg/mL
same,MIC,[2],1.5 µg/mL
same,MIC,Ps. aeruginosa (Gn-III),3.1 µg/mL
same,MIC,S. aureus Smith,6.3 µg/mL
same,MIC,S. aureus A9497,3.1 µg/mL
same,MIC,S. aureus BX-1633,6.3 µg/mL
same,MIC,S. aureus A15092,6.3 µg/mL
same,MIC,E. cloacae A9656,0.2 µg/mL
same,MIC,"S. marcescens A20019; A20019, Gn-II, CET-R, read-out: Minimum Inhibitory Concentration",0.4 µg/mL
same,MIC,B. fragilis A22693,12.5 µg/mL
same,MIC,C. perfringens A9635,12.5 µg/mL
same,MIC,"P. acnes A21933; A21933, Anaerobe, CLDM-R, read-out: Minimum Inhibitory Concentration",1.6 µg/mL
same,MIC,N. gonorrhoeae; 4 strains,0.013 µg/mL
same,MIC,"H. influenzae(AMP-S); AMP-S, 7 strains",0.1 µg/mL
"CC(C)(O/N=C(\C(=O)N[C@@H]1C(=O)N2C(C(=O)[O-])=C(C[n+]3ccccc3)CS[C@H]12)c1csc(N)n1)C(=O)O [Ceftazidime, ceftazidime, reference compound]",MIC,[2],2.7 µg/mL
same,MIC,Ps. aeruginosa (Gn-III),2 µg/mL
same,MIC,"S. marcescens A20019; A20019, read-out: Minimum Inhibitory Concentration",0.1 µg/mL
same,MIC,B. fragilis A22693,12.5 µg/mL
same,MIC,C. perfringens A9635,6.3 µg/mL
same,MIC,"P. acnes A21933; A21933, read-out: Minimum Inhibitory Concentration",1.6 µg/mL
same,MIC,N. gonorrhoeae,0.1 µg/mL
same,MIC,H. influenzae(AMP-S),0.055 µg/mL
same,MIC,B. fragilis Group I; [4],5.3 µg/mL
same,MIC,B. fragilis Group I; [5],8.9 µg/mL
same,MIC,B. fragilis Group II; [4],13 µg/mL
same,MIC,B. fragilis Group II; [5],16 µg/mL
same,MIC,B. fragilis Group III; [4],81 µg/mL
same,MIC,B. fragilis Group III; [5],> 100 µg/mL
same,MIC,[3]; [4],6.2 µg/mL
same,MIC,[3]; [5],8.2 µg/mL
